# From patent US10556914B2, “Substituted isoxazolopyridazinones and isothiazolopyridazinones and methods of use” (AbbVie Inc., priority 2015, dated 2020)
# Biological target: GABA-B receptor (Rattus norvegicus (Rat), UniProt O88871+Q9Z0U4)
# Test: [35S]GTPgS Binding Assay (rat brain cortex membranes, native receptor)
# Type: biochemical
# Details: rat cortical membranes; in the presence of 1 μM GABA (EC25); basal binding 0%, maximal binding (1 mM GABA) 100%
# GABA-B receptor, sequence (Q9Z0U4 17-960): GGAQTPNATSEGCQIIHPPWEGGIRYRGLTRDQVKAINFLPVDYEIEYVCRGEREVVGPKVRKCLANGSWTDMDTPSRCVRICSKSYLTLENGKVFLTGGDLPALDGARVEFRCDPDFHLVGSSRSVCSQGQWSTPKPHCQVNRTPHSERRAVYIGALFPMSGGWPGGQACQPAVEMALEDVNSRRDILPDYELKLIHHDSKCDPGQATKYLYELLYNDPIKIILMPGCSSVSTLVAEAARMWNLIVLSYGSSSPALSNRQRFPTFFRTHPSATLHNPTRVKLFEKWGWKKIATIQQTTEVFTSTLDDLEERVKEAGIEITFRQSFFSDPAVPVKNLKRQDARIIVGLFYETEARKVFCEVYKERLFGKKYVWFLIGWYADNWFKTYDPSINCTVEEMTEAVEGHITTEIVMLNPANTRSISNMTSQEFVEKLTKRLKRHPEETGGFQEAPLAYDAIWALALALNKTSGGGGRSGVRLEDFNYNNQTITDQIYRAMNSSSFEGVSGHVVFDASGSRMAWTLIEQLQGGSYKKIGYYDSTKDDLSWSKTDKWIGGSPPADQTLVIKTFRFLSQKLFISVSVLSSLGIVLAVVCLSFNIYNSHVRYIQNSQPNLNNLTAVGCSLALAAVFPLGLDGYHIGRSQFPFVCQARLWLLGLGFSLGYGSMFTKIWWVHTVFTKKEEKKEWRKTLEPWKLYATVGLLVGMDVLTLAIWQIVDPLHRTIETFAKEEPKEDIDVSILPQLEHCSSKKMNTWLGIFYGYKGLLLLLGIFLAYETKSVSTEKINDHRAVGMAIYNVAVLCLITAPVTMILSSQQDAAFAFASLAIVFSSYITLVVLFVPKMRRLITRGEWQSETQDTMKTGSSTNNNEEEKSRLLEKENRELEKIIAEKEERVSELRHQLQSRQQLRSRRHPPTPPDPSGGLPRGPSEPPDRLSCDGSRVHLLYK
# GABA-B receptor, sequence (O88871 41-940): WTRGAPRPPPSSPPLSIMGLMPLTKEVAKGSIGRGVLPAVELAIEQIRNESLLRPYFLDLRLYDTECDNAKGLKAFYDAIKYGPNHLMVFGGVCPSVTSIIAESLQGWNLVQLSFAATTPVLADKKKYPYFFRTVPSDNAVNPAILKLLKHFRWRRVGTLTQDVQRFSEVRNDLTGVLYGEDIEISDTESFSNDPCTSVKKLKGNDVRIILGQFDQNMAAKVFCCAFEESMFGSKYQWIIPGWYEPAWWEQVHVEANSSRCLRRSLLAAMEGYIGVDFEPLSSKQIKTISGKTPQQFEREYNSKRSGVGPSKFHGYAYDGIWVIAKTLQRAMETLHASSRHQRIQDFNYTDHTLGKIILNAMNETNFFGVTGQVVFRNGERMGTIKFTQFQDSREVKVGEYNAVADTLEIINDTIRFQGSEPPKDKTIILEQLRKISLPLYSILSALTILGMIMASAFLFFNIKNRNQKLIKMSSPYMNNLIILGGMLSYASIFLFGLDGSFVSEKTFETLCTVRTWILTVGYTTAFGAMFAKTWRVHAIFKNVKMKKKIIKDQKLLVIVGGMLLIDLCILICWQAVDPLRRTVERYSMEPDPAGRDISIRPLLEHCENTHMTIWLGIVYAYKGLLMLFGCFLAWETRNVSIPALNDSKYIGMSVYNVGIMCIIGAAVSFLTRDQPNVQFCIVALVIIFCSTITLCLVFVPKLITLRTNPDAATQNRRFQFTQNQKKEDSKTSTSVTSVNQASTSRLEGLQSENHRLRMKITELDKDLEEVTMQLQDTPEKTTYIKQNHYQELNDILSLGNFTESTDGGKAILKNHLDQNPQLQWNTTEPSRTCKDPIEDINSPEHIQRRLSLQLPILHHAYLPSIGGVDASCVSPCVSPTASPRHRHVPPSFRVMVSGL
row,Compound,EC50 [µM]
1,"CNC(=O)c1ccc(OC)c(-c2nn(C(C)c3ccc(Cl)cc3)c(=O)c3c(C)noc23)c1 (centres unmarked) [Example 119, 3-{5-[1-(4-chlorophenyl)ethyl]-3-methyl-4-oxo-4,5-dihydro[1,2]oxazolo[4,5-d]pyridazin-7-yl}-4-methoxy-N-methylbenzamide]",0.056
2,"COc1ccc(OC)c(-c2nn([C@H](C)c3ccc(C(F)(F)F)cc3)c(=O)c3c(C)noc23)c1 [Example 125, 7-(2,5-dimethoxyphenyl)-3-methyl-5-{(1R)-1-[4-(trifluoromethyl)phenyl]ethyl}[1,2]oxazolo[4,5-d]pyridazin-4(5H)-one]",0.582
3,"COc1ccc(OC)c(-c2nn([C@H](C)c3ccc(Cl)cc3)c(=O)c3c(C4CC4)noc23)c1 [Example 128, 5-[(1R)-1-(4-chlorophenyl)ethyl]-3-cyclopropyl-7-(2,5-dimethoxyphenyl)-[1,2]oxazolo[4,5-d]pyridazin-4(5H)-one]",> 10
4,"CCc1noc2c(-c3cccc(NC(C)=O)c3)nn(Cc3ccc(Cl)cc3)c(=O)c12 [Example 129, N-{3-[5-(4-chlorobenzyl)-3-ethyl-4-oxo-4,5-dihydro[1,2]oxazolo[4,5-d]pyridazin-7-yl]phenyl}acetamide]",2.11
5,CCNC(=O)c1ccc(OC)c(-c2nn(C(C)c3ccc(Cl)cc3)c(=O)c3c(C)noc23)c1 (centres unmarked) [Example 131],0.453

# The remaining compounds from weak to strong by EC50, led by results:
row,EC50 [µM],Compound
1,6.82,"Cc1noc2c(-c3cccnc3)nn(Cc3ccc(Cl)cc3)c(=O)c12 [Example 120, 5-(4-chlorobenzyl)-3-methyl-7-(pyridin-3-yl)[1,2]oxazolo[4,5-d]pyridazin-4(5H)-one]"
2,3.8,"Cc1noc2c(-c3ccccc3)nn(Cc3ccc(Cl)cc3)c(=O)c12 [Example 122, 5-(4-chlorobenzyl)-3-methyl-7-phenyl[1,2]oxazolo[4,5-d]pyridazin-4(5H)-one]"
3,2.93,"COc1ccccc1-c1nn(Cc2ccc(C(F)(F)F)cc2)c(=O)c2c(C)noc12 [Example 118, 7-(2-methoxyphenyl)-3-methyl-5-[4-(trifluoromethyl)benzyl][1,2]oxazolo[4,5-d]pyridazin-4(5H)-one]"
4,1.56,"COc1ccc(-c2nn(Cc3ccc(C(F)(F)F)cc3)c(=O)c3c(C)noc23)c(OC)c1 [Example 127, 7-(2,4-dimethoxyphenyl)-3-methyl-5-[4-(trifluoromethyl)benzyl][1,2]oxazolo[4,5-d]pyridazin-4(5H)-one]"
5,0.501,"Cc1noc2c(-c3cccc(N)c3)nn(C(C)c3ccc(Cl)cc3)c(=O)c12 (centres unmarked) [Example 126, 7-(3-aminophenyl)-5-[1-(4-chlorophenyl)ethyl]-3-methyl[1,2]oxazolo[4,5-d]pyridazin-4(5H)-one]"
6,0.043,"COc1ccc(NC(C)=O)cc1-c1nn([C@@H](C)c2ccc(Cl)cc2)c(=O)c2c(C)noc12 [Example 117, N-(3-{5-[(1S)-1-(4-chlorophenyl)ethyl]-3-methyl-4-oxo-4,5-dihydro[1,2]oxazolo[4,5-d]pyridazin-7-yl}-4-methoxyphenyl)acetamide]"
